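Dose response: 5 concentrations. Exposure: 48 h. Format: 96-well plates. Endpoint: linear interpolation; highest concentration if not reached. GI50 = concentration required for 50% inhibition of growth.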 Activity calls are given as the source filed them. Rule as the data show it: active = GI50 up to about 1.1 µM and inactive = higher.
Tests used:
Assay in all cases: NCI anticancer screen, dose series, 48 h
SF-268 = tested on: SF-268
Hs-578T = tested on: Hs-578T
MDA-MB-231 = tested on: MDA-MB-231
NCI-H522 = tested on: NCI-H522
OVCAR-4 = tested on: OVCAR-4
TK-10 = tested on: TK-10
T47D = tested on: T47D
HCC 2998 = tested on: HCC 2998
NCI-H226 = tested on: NCI-H226
SR = tested on: SR
NCI/ADR-RES = tested on: NCI/ADR-RES
SK-MEL-28 = tested on: SK-MEL-28
UACC-62 = tested on: UACC-62
IGROV-1 = tested on: IGROV-1
HL-60 = tested on: HL-60
RPMI-8226 = tested on: RPMI-8226
SF-539 = tested on: SF-539
DMS-273 = tested on: DMS-273
M14 = tested on: M14

Measured: GI50

Cc1ccc(S(=O)(=O)NCCSS(=O)(=O)c2ccc(C)cc2)cc1
inactive: SF-268 22.1 µM | Hs-578T 96.4 µM | MDA-MB-231 37.7 µM | NCI-H522 18.2 µM | OVCAR-4 > 100 µM | TK-10 > 100 µM | T47D 27.7 µM | HCC 2998 62.5 µM | NCI-H226 24.3 µM | SR 13.9 µM | NCI/ADR-RES 25.8 µM | SK-MEL-28 31.7 µM

O=c1c(-c2ccccc2)c(SCCN2CCOCC2)n(-c2ccccc2)c(=S)n1-c1ccccc1
inactive: UACC-62 89.1 µM | Hs-578T 62.2 µM | MDA-MB-231 83.9 µM | NCI-H522 51.5 µM | IGROV-1 > 100 µM | HL-60 > 100 µM | OVCAR-4 32.1 µM | RPMI-8226 > 100 µM | TK-10 46.6 µM | SF-539 > 100 µM | HCC 2998 > 100 µM | NCI-H226 35.3 µM | SR > 100 µM | NCI/ADR-RES > 100 µM | SK-MEL-28 > 100 µM

CCNC(=S)NNC(=O)c1nsc2ccccc12
inactive: UACC-62 63.8 µM | DMS-273 97.5 µM | SF-268 81.5 µM | IGROV-1 > 100 µM | HL-60 59.4 µM | OVCAR-4 > 100 µM | RPMI-8226 51.8 µM | TK-10 > 100 µM | SF-539 > 100 µM | M14 > 100 µM | HCC 2998 > 100 µM | SR 64 µM | SK-MEL-28 > 100 µM

COc1ccc2c(O)c3[n+](cc2c1OC)CCc1cc2c(cc1-3)OCO2
inactive: UACC-62 37.4 µM | SF-268 > 100 µM | Hs-578T > 100 µM | MDA-MB-231 > 100 µM | NCI-H522 17 µM | IGROV-1 91.8 µM | HL-60 33.2 µM | OVCAR-4 > 100 µM | RPMI-8226 84.3 µM | TK-10 > 100 µM | T47D 88.3 µM | SF-539 > 100 µM | M14 > 100 µM | HCC 2998 > 100 µM | NCI-H226 > 100 µM | SR 39.3 µM | NCI/ADR-RES > 100 µM

CS(C)(=O)=Nn1c(=O)n2n(c1=O)C1c3ccccc3C2c2ccccc21
inactive: UACC-62 > 100 µM | MDA-MB-231 > 100 µM | NCI-H522 > 100 µM | IGROV-1 > 100 µM | HL-60 > 100 µM | RPMI-8226 > 100 µM | TK-10 > 100 µM | T47D > 100 µM | SF-539 > 100 µM | M14 > 100 µM | SR > 100 µM | NCI/ADR-RES > 100 µM | SK-MEL-28 > 100 µM

C1CSCCSCCSCCSC1
inactive: UACC-62 > 100 µM | SF-268 > 100 µM | Hs-578T > 100 µM | MDA-MB-231 > 100 µM | NCI-H522 > 100 µM | IGROV-1 > 100 µM | OVCAR-4 > 100 µM | RPMI-8226 > 100 µM | TK-10 > 100 µM | T47D > 100 µM | SF-539 > 100 µM | M14 > 100 µM | HCC 2998 > 100 µM | NCI-H226 > 100 µM | NCI/ADR-RES > 100 µM | SK-MEL-28 > 100 µM

Source: ChEMBL document CHEMBL1201862, “PubChem BioAssay data set” (2004)
